# Test results as given in the supplement of paper PMC10307832.
# Tests used:
# Experiment in all cases: relative viability (nuclei count vs DMSO), 5 days (fraction); higher = more cells survive
# NCI-H1437 = test system: NCI-H1437
# Summary of the method: (§1)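 Nuclei were stained with Hoechst during a one-step fixation (final 0.05% Triton X-100, 1% formaldehyde, 1 ug/ml Hoechst) carried out 5 days after dosing, then counted on 4× images. The cells, lung cancer lines in 1536-well plates, had been dosed by pin tool the day after seeding with one drug alone or a fixed anchor-drug dose plus five library-drug doses (not always all listed) in √10 steps. Relative viability is the nuclei count in treated wells divided by that in vehicle wells, and each value is the median of duplicate plates.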
# NCI-H23 = test system: NCI-H23
# Summary of the method: as §1
# HCC-366 = test system: HCC-366
# Summary of the method: as §1
# SW 1573 = test system: SW 1573
# Summary of the method: as §1
# NCI-H727 = test system: NCI-H727
# Summary of the method: as §1
# NCI-H460 = test system: NCI-H460
# Summary of the method: as §1
# HCC-827 = test system: HCC-827
# Summary of the method: as §1
# CAL-12T = test system: CAL-12T
# Summary of the method: as §1
# LCLC-103H = test system: LCLC-103H
# Summary of the method: as §1
# HOP-62 = test system: HOP-62
# Summary of the method: as §1
# SK-LU-1 = test system: SK-LU-1
# Summary of the method: as §1
# NCI-H1395 = test system: NCI-H1395
# Summary of the method: as §1
# EMC-BAC-2 = test system: EMC-BAC-2
# Summary of the method: as §1
# COR-L 105 = test system: COR-L 105
# Summary of the method: as §1
# NCI-H1915 = test system: NCI-H1915
# Summary of the method: as §1
# HARA = test system: HARA
# Summary of the method: as §1
# NCI-H2228 = test system: NCI-H2228
# Summary of the method: as §1
# NCI-H2009 = test system: NCI-H2009
# Summary of the method: as §1
# NCI-H1755 = test system: NCI-H1755
# Summary of the method: as §1
# A-427 = test system: A-427
# Summary of the method: as §1
compound,measurement,setting,value
CC(=O)O[C@@]12CO[C@@H]1C[C@H](O)[C@@]1(C)C(=O)[C@H](O)C3=C(C)[C@@H](OC(=O)[C@H](O)[C@@H](NC(=O)OC(C)(C)C)c4ccccc4)C[C@@](O)([C@@H](OC(=O)c4ccccc4)[C@H]21)C3(C)C [Docetaxel] + COc1cc2c(Oc3ccc(NC(=O)C4(C(=O)Nc5ccc(F)cc5)CC4)cc3F)ccnc2cc1OCCCN1CCOCC1 [Foretinib] (partner 0.25 µM),relative viability,NCI-H1437; first compound 0.0002 µM,1.12
same,relative viability,NCI-H1437; first compound 0.000632 µM,1.21
same,relative viability,NCI-H1437; first compound 0.002 µM,0.351
same,relative viability,NCI-H1437; first compound 0.006325 µM,0.273
same,relative viability,NCI-H1437; first compound 0.02 µM,0.188
same,relative viability,NCI-H23; first compound 0.0002 µM,0.964
same,relative viability,NCI-H23; first compound 0.000632 µM,0.859
same,relative viability,NCI-H23; first compound 0.002 µM,0.705
same,relative viability,NCI-H23; first compound 0.006325 µM,0.188
same,relative viability,NCI-H23; first compound 0.02 µM,0.147
same,relative viability,HCC-366; first compound 0.0002 µM,0.85
same,relative viability,HCC-366; first compound 0.000632 µM,0.122
same,relative viability,HCC-366; first compound 0.002 µM,0.201
same,relative viability,HCC-366; first compound 0.006325 µM,0.0376
same,relative viability,HCC-366; first compound 0.02 µM,0.0329
same,relative viability,SW 1573; first compound 0.0002 µM,0.719
same,relative viability,SW 1573; first compound 0.000632 µM,1.06
same,relative viability,SW 1573; first compound 0.002 µM,0.342
same,relative viability,SW 1573; first compound 0.006325 µM,0.193
same,relative viability,SW 1573; first compound 0.02 µM,0.2
same,relative viability,NCI-H727; first compound 0.0002 µM,0.834
same,relative viability,NCI-H727; first compound 0.000632 µM,0.693
same,relative viability,NCI-H727; first compound 0.002 µM,0.788
same,relative viability,NCI-H727; first compound 0.006325 µM,0.507
same,relative viability,NCI-H727; first compound 0.02 µM,0.346
same,relative viability,NCI-H460; first compound 0.0002 µM,0.952
same,relative viability,NCI-H460; first compound 0.000632 µM,0.933
same,relative viability,NCI-H460; first compound 0.002 µM,0.184
same,relative viability,NCI-H460; first compound 0.006325 µM,0.0294
same,relative viability,NCI-H460; first compound 0.02 µM,0.022
same,relative viability,HCC-827; first compound 0.0002 µM,1.03
same,relative viability,HCC-827; first compound 0.000632 µM,1
same,relative viability,HCC-827; first compound 0.002 µM,0.771
same,relative viability,HCC-827; first compound 0.006325 µM,0.362
same,relative viability,HCC-827; first compound 0.02 µM,0.291
same,relative viability,CAL-12T; first compound 0.0002 µM,0.979
same,relative viability,CAL-12T; first compound 0.000632 µM,0.729
same,relative viability,CAL-12T; first compound 0.002 µM,0.238
same,relative viability,CAL-12T; first compound 0.006325 µM,0.216
same,relative viability,CAL-12T; first compound 0.02 µM,0.163
same,relative viability,LCLC-103H; first compound 0.0002 µM,0.674
same,relative viability,LCLC-103H; first compound 0.000632 µM,0.61
same,relative viability,LCLC-103H; first compound 0.002 µM,0.485
same,relative viability,LCLC-103H; first compound 0.006325 µM,0.339
same,relative viability,LCLC-103H; first compound 0.02 µM,0.272
same,relative viability,HOP-62; first compound 0.0002 µM,1.07
same,relative viability,HOP-62; first compound 0.000632 µM,0.732
same,relative viability,HOP-62; first compound 0.002 µM,0.427
same,relative viability,HOP-62; first compound 0.006325 µM,0.295
same,relative viability,SK-LU-1; first compound 0.0002 µM,0.737
same,relative viability,SK-LU-1; first compound 0.000632 µM,0.459
same,relative viability,SK-LU-1; first compound 0.002 µM,0.451
same,relative viability,SK-LU-1; first compound 0.006325 µM,0.275
same,relative viability,SK-LU-1; first compound 0.02 µM,0.196
same,relative viability,NCI-H1395; first compound 0.0002 µM,0.883
same,relative viability,NCI-H1395; first compound 0.000632 µM,0.874
same,relative viability,NCI-H1395; first compound 0.002 µM,0.904
same,relative viability,NCI-H1395; first compound 0.006325 µM,0.456
same,relative viability,NCI-H1395; first compound 0.02 µM,0.342
same,relative viability,EMC-BAC-2; first compound 0.0002 µM,1.02
same,relative viability,EMC-BAC-2; first compound 0.000632 µM,0.948
same,relative viability,EMC-BAC-2; first compound 0.002 µM,0.36
same,relative viability,EMC-BAC-2; first compound 0.006325 µM,0.348
same,relative viability,EMC-BAC-2; first compound 0.02 µM,0.205
same,relative viability,COR-L 105; first compound 0.0002 µM,0.986
same,relative viability,COR-L 105; first compound 0.000632 µM,0.95
same,relative viability,COR-L 105; first compound 0.002 µM,0.487
same,relative viability,COR-L 105; first compound 0.006325 µM,0.475
same,relative viability,COR-L 105; first compound 0.02 µM,0.331
same,relative viability,NCI-H1915; first compound 0.0002 µM,1.15
same,relative viability,NCI-H1915; first compound 0.000632 µM,1.05
same,relative viability,NCI-H1915; first compound 0.002 µM,0.736
same,relative viability,NCI-H1915; first compound 0.006325 µM,0.262
same,relative viability,NCI-H1915; first compound 0.02 µM,0.179
same,relative viability,HARA; first compound 0.0002 µM,0.709
same,relative viability,HARA; first compound 0.000632 µM,0.128
same,relative viability,HARA; first compound 0.002 µM,0.146
same,relative viability,HARA; first compound 0.006325 µM,0.0748
same,relative viability,HARA; first compound 0.02 µM,0.0559
same,relative viability,NCI-H2228; first compound 0.0002 µM,0.785
same,relative viability,NCI-H2228; first compound 0.000632 µM,0.222
same,relative viability,NCI-H2228; first compound 0.002 µM,0.185
same,relative viability,NCI-H2228; first compound 0.006325 µM,0.145
same,relative viability,NCI-H2228; first compound 0.02 µM,0.137
same,relative viability,NCI-H2009; first compound 0.0002 µM,1.18
same,relative viability,NCI-H2009; first compound 0.000632 µM,1.26
same,relative viability,NCI-H2009; first compound 0.002 µM,0.952
same,relative viability,NCI-H2009; first compound 0.006325 µM,0.467
same,relative viability,NCI-H2009; first compound 0.02 µM,0.304
same,relative viability,NCI-H1755; first compound 0.0002 µM,0.901
same,relative viability,NCI-H1755; first compound 0.000632 µM,0.88
same,relative viability,NCI-H1755; first compound 0.002 µM,0.564
same,relative viability,NCI-H1755; first compound 0.006325 µM,0.351
same,relative viability,NCI-H1755; first compound 0.02 µM,0.373
same,relative viability,A-427; first compound 0.0002 µM,1
same,relative viability,A-427; first compound 0.000632 µM,1.04
same,relative viability,A-427; first compound 0.002 µM,0.686
same,relative viability,A-427; first compound 0.006325 µM,0.261
same,relative viability,A-427; first compound 0.02 µM,0.176
